# Laboratory results taken from ChEMBL document CHEMBL1201862, “PubChem BioAssay data set” (2004).
#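 Interpolation was linear, between the two tested concentrations surrounding the appropriate level; five concentrations were tested over 48 hours in 96-well plates. GI50 marks 50% less growth.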 Calls of active or inactive are those of the source. No stated cut-off is given here; in the data, active = GI50 up to about 1.1 µM and inactive = higher.
# Legend:
# Assay in all cases: NCI anticancer screen, dose series, 48 h
# [1] = test system: LXFL 529
# [2] = test system: RXF 631
# [3] = test system: HOP-18
# [4] = test system: KM-20L2
# [5] = test system: SNB-78
# [6] = test system: DMS-114
# [7] = test system: DMS-273
# [8] = test system: DLD-1
# [9] = test system: M19-MEL
SMILES,GI50 [1],GI50 [2],GI50 [3],GI50 [4],GI50 [5],GI50 [6],GI50 [7],GI50 [8],GI50 [9]
CCCCCCCSCC1C(=O)C23C(O)C1CCC2C12COC3(O)C(O)C1C(C)(C)CCC2O (centres undefined),2.37 µM (inactive),5.04 µM (inactive),12.5 µM (inactive),12 µM (inactive),15.3 µM (inactive),8.38 µM (inactive),12.6 µM (inactive),14.4 µM (inactive),15.3 µM (inactive)
CCCC/C=C1\CCC(C)(CN(C)C)C1=O (centres undefined),> 100 µM (inactive),,> 100 µM (inactive),> 100 µM (inactive),> 100 µM (inactive),> 100 µM (inactive),,> 10 µM (inactive),15.6 µM (inactive)
CCCCOC(=O)N[C@H]1CCc2cc(OC)c(OC)c(OC)c2-c2ccc(SC)c(=O)cc21,< 0.01 µM (active),,21.4 µM (inactive),< 0.01 µM (active),< 0.01 µM (active),< 0.01 µM (active),< 0.01 µM (active),< 0.01 µM (active),< 0.01 µM (active)
COc1ccc(/N=C/c2ccc(N(CCC#N)S(=O)(=O)c3ccccc3)cc2)cc1,> 100 µM (inactive),> 100 µM (inactive),> 100 µM (inactive),> 100 µM (inactive),> 100 µM (inactive),> 100 µM (inactive),> 100 µM (inactive),> 100 µM (inactive),> 100 µM (inactive)
CCCCCCCCCCCCCCCCOC(=O)c1cc(O)cc(C(=O)OCCCCCCCCCCCCCCCC)c1,> 100 µM (inactive),> 100 µM (inactive),> 100 µM (inactive),> 100 µM (inactive),> 100 µM (inactive),> 100 µM (inactive),> 100 µM (inactive),,> 100 µM (inactive)
CC(C)S(=O)(=O)ON1C(=O)c2ccc([N+](=O)[O-])cc2C1=O,> 100 µM (inactive),> 100 µM (inactive),> 100 µM (inactive),,> 100 µM (inactive),> 100 µM (inactive),> 100 µM (inactive),> 100 µM (inactive),> 100 µM (inactive)
CCOc1ccc(/N=C/c2c3ccccc3nc3ccccc23)cc1,24.7 µM (inactive),> 100 µM (inactive),> 100 µM (inactive),40.2 µM (inactive),> 100 µM (inactive),25.1 µM (inactive),32.4 µM (inactive),24.7 µM (inactive),> 100 µM (inactive)
O=C1C2C3C=C4c5ccccc5N(c5ccccc5)C4(C2C(=O)N1c1ccc(Br)cc1)[C@H]1C(=O)N(c2ccc(Br)cc2)C(=O)[C@@H]31 (some centres undefined),83.8 µM (inactive),,> 100 µM (inactive),> 100 µM (inactive),> 100 µM (inactive),,> 100 µM (inactive),> 100 µM (inactive),
COc1ccccc1NC(=O)C1=C(C)NC(C)=C(C(=O)Nc2ccccc2OC)C1c1ccco1,5.15 µM (inactive),6.18 µM (inactive),3.31 µM (inactive),3.76 µM (inactive),9.1 µM (inactive),2.87 µM (inactive),4.14 µM (inactive),4.27 µM (inactive),4.63 µM (inactive)
Cc1c(C)c2cc3c(=O)ccoc3c(C)c2oc1=O,80.4 µM (inactive),83 µM (inactive),41.6 µM (inactive),> 100 µM (inactive),> 100 µM (inactive),48.3 µM (inactive),,,70.6 µM (inactive)
COC(=O)C12C34C=CC5(CCC6(C=CC1(CC3)O6)C52C(=O)OC)O4 (centres undefined),> 100 µM (inactive),> 100 µM (inactive),> 100 µM (inactive),> 100 µM (inactive),> 100 µM (inactive),,> 100 µM (inactive),,> 100 µM (inactive)
Cc1nc(C)c(C(=O)Nc2cccc3c2C(=O)NC3=O)cc1C(=O)Nc1cccc2c1C(=O)NC2=O,> 100 µM (inactive),,> 100 µM (inactive),> 100 µM (inactive),> 100 µM (inactive),> 100 µM (inactive),> 100 µM (inactive),> 100 µM (inactive),> 100 µM (inactive)
CCOc1ccc(NC(=O)CCc2nnc(SC)o2)cc1,> 100 µM (inactive),,> 100 µM (inactive),> 100 µM (inactive),> 100 µM (inactive),> 100 µM (inactive),> 100 µM (inactive),> 100 µM (inactive),> 100 µM (inactive)
C/C(=N/NC(=O)C(N)=O)C(CC(C(=O)Nc1ccccc1C)/C(C)=N\NC(=O)C(N)=O)C(=O)Nc1ccccc1C (centres undefined),> 100 µM (inactive),,,> 100 µM (inactive),> 100 µM (inactive),,,> 100 µM (inactive),> 100 µM (inactive)
COc1cc2c(cc1OC)C(OC)N(C)c1c-2ccc2cc3c(cc12)OCO3 (centres undefined),,,21.6 µM (inactive),0.558 µM (active),2.67 µM (inactive),1.17 µM (inactive),1.11 µM (active),9.68 µM (inactive),1.19 µM (inactive)
COc1ccc2c(c1)CC[C@@H]1C2CC[C@]2(C)C(=O)NC(=O)CC12 (some centres undefined),59.3 µM (inactive),,26 µM (inactive),> 100 µM (inactive),> 100 µM (inactive),,65.8 µM (inactive),> 100 µM (inactive),> 100 µM (inactive)
CCSC1=CC(Cc2ccc(OC)cc2)N(C(=O)OC)C1 (centres undefined),91.4 µM (inactive),> 100 µM (inactive),> 100 µM (inactive),> 100 µM (inactive),> 100 µM (inactive),23.4 µM (inactive),70 µM (inactive),81.8 µM (inactive),> 100 µM (inactive)
COC(=O)N/N=C(\C)c1c(O)cc(C)oc1=O,10.8 µM (inactive),> 100 µM (inactive),,22.1 µM (inactive),> 100 µM (inactive),,,30.1 µM (inactive),
COC(=O)[C@@]12OC[C@]34C([C@@H](O)C1O)[C@@]1(C)CC(=O)C(OC(=O)/C=C(/c5ccccc5)C(F)(F)F)=C(C)C1C[C@H]3OC(=O)[C@H](O)[C@H]42 (some centres undefined),7.35 µM (inactive),,30.1 µM (inactive),8.61 µM (inactive),11.2 µM (inactive),4.27 µM (inactive),3.44 µM (inactive),7.41 µM (inactive),5.08 µM (inactive)
Cc1cc(C)c(C(=O)/C(=C/c2ccccc2)c2ccccc2)c(C)c1,34.8 µM (inactive),29.9 µM (inactive),> 100 µM (inactive),42.2 µM (inactive),,35.6 µM (inactive),,> 100 µM (inactive),39.9 µM (inactive)
S=c1sc2c(S)nc(S)nc2n1-c1ccccc1,> 100 µM (inactive),,> 100 µM (inactive),> 100 µM (inactive),> 100 µM (inactive),75.5 µM (inactive),> 100 µM (inactive),> 100 µM (inactive),> 100 µM (inactive)
